System: GUMC-403
Test: viability at highest tested concentration (max response) relative to DMSO (% of DMSO control); higher = less cytotoxic
Details: library / dose series: MIPE library, 11-point 1:3 dilution, 48 h
Procedure, shortened: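 Each figure stands for viability at the highest tested concentration compared with vehicle control. It was measured by CellTiter-Glo luminescence on a ViewLux after 48 h of exposure to 23 nL of pinned compound, with vehicle wells taken as 100% and empty wells as 0%. The cells were patient-derived GUMC-403 papilloma cells grown by conditional reprogramming, plated at 700/well in 5 μL F + Y medium in 1536-well plates.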

Row | Structure (SMILES) | viability (top concentration 46.1 µM) | also measured
1 | CO[C@H]1C[C@@H]2CC[C@@H](C)[C@@](O)(O2)C(=O)C(=O)N2CCCC[C@H]2C(=O)O[C@H]([C@H](C)C[C@@H]2CC[C@@H](OP(C)(C)=O)[C@H](OC)C2)CC(=O)[C@H](C)/C=C(\C)[C@@H](O)[C@@H](OC)C(=O)[C@H](C)C[C@H](C)/C=C/C=C/C=C/1C | 104 | –
2 | NC(=O)N1c2ccccc2CC(=O)c2ccccc21 | 111 | –
3 | COC(=O)Nc1nc2ccc([S+]([O-])c3ccccc3)cc2[nH]1 (configuration not stated) | 95.4 | –
4 | Cc1cc(Nc2cc(N3CCN(C)CC3)nc(/C=C/c3ccccc3)n2)n[nH]1 | – | viability (top concentration 92.2 µM): 54.1
5 | Cn1cc(C[C@@H](N)C(=O)O)c2ccccc21 | – | viability (top concentration 23 µM): 111
6 | CC1(C)CCC(=C(CN2CCN(CC2)C3=CC=C(C=C3)C(=O)N[S+]([O-])(=O)C4=CC(=C(N[C@H](CCN5CCOCC5)CSC6=CC=CC=C6)C=C4)[S+]([O-])(=O)C(F)(F)F)\C1)/C7=CC=C(Cl)C=C7 | 97 | –
7 | CN(C)c1cc(NC(=O)CNC(C)(C)C)c(O)c2c1C[C@H]1C[C@H]3[C@H](N(C)C)C(O)=C(C(N)=O)C(=O)[C@@]3(O)C(O)=C1C2=O | 110 | –
8 | C/C=C(\C)C(=O)N[C@@H](c1ccccc1)[C@@H](O)C(=O)O[C@H]1C[C@@]2(O)[C@@H](OC(=O)c3ccccc3)[C@@H]3[C@]4(OC(C)=O)CO[C@@H]4C[C@H](O)[C@@]3(C)C(=O)[C@H](OC(C)=O)C(=C1C)C2(C)C | 111 | –
9 | CN1CCN(CCCN2c3ccccc3Sc3ccc(Cl)cc32)CC1.O=C(O)/C=C\C(=O)O.O=C(O)/C=C\C(=O)O | 95.8 | –
10 | O=C1N(c2ccccc2)c2ccccc2C1(Cc1ccncc1)Cc1ccncc1 | 108 | –
11 | Cc1ccc2c(c1)c1c(n2CCc2ccc(C)nc2)CCN(C)C1 | 108 | –
12 | Cc1nc2c([nH]1)-c1ccccc1N(C(=O)c1ccc(NC(=O)c3ccccc3-c3ccccc3)cc1)CC2 | 126 | –
13 | NC(=O)N/N=C/c1ccc([N+](=O)[O-])o1 | 135 | –
14 | Cc1cncc2cccc([S+](=O)([O-])N3CCCN(C(=O)CN)C[C@@H]3C)c12 | 138 | –
15 | NC/1=N/C2=C([NH]C=N2)C(=S)N1 | 97.1 | –
16 | O=C(Nc1ccccc1Br)N[C@@H]1CCN(c2ccc(C(F)(F)F)cn2)C1 | 114 | –
17 | CC(=O)O/N=C1/C(=C2\C(=O)Nc3cc(Br)ccc32)Nc2ccccc21 | 122 | –
18 | C[C@@H](O)[C@@H]1[C@H]2[C@@H](C)\C(=C(/N2C1=O)C(=O)OCOC(=O)C(C)(C)C)SC3CN(C3)/C4=N/CCS4 | 78.1 | –
19 | O=C(NOCC(O)CO)c1cc(Br)c(F)c(F)c1Nc1ccc(I)cc1F (configuration not stated) | 62.8 | –
20 | C[C@]12CCC\3=C\4CCC(=O)\C=C4CC[C@H]3[C@@H]1CC[C@@]2(O)CC#N | 122 | –
21 | CCCC(C)(COC(N)=O)COC(=O)NC(C)C (configuration not stated) | 117 | –
22 | CC(C)c1cc(C(C)C)c(CC(=O)N[S+](=O)([O-])Oc2c(C(C)C)cccc2C(C)C)c(C(C)C)c1 | 99.7 | –
23 | OC(CN1CCC(Cc2ccc(F)cc2)CC1)c1ccc(Cl)cc1 (configuration not stated) | 103 | –
24 | COc1ccc(C(=O)c2c(C)n(CCN3CCOCC3)c3cc(I)ccc23)cc1 | 143 | –
25 | CCCC1=NC(=C2[N]1NC(=N\C2=O)/C3=CC(=CC=C3OCC)[S+]([O-])(=O)N4CCN(CC)CC4)C | 102 | –
26 | COc1cc(OC)c(/C=C/[S+](=O)([O-])Cc2ccc(OC)c(NCC(=O)[O][Na])c2)c(OC)c1 | 118 | –

Row | Structure (SMILES) | viability (top concentration 46.1 µM) | also measured
27 | CCCCc1ccc(N[S+](=O)([O-])c2ccc(C)c(C(=O)N3CCN(c4cccc(C)c4C)CC3)c2)cc1 | 111 | –
28 | O=C(OCC#CCSc1nnc(-c2cccc3ccccc23)o1)c1cc2ccccc2s1 | 102 | –
29 | CCOC(=O)[C@@H](N)Cc1ccc(-c2cc(O[C@H](c3ccc(Cl)cc3-n3ccc(C)n3)C(F)(F)F)nc(N)n2)cc1.O=C(O)CNC(=O)c1ccccc1 | 117 | –
30 | C=C1C(=O)OC2/C=C(/C)CC/C=C(/C)CCC12 (configuration not stated) | 113 | –
31 | Clc1ccccc1C(c1ccccc1)(c1ccccc1)n1cccn1 | 105 | –
32 | COc1cc2ncnc(Nc3cccc(Br)c3)c2cc1OC | 81.6 | –
33 | C[C@H]1O[C@H](O[C@H]2[C@H](O)[C@@H](O)[C@H](O[C@@H]2CO)O[C@H]3[C@H](O)[C@@H](O)C(O)O[C@@H]3CO)[C@H](O)[C@@H](O)[C@@H]1N[C@H]4\C=C(CO)/[C@@H](O)[C@H](O)[C@H]4O (some centres not stated) | 135 | –
34 | CC[C@@]1(O)C(=O)OC\C2=C1\C=C3/N(CC4=CC5=C(C=CC(=C5CN(C)C)O)N=C34)C2=O | 66.5 | –
35 | O=c1[nH]c(=O)n(C2CCCO2)cc1F (configuration not stated) | – | viability (top concentration 92.2 µM): 104
36 | CN[C@@H](C)C(=O)N[C@H]1CN(C(=O)CC(C)C)CC[C@H]2CC[C@@H](C(=O)NC(c3ccccc3)c3ccccc3)N2C1=O | 73.1 | –
37 | COc1ccc(Cc2nccc3cc(OC)c(OC)cc23)cc1OC | 109 | –
38 | CNC(=O)c1c(F)cccc1Nc1nc(Nc2cc3c(cc2OC)CCN3C(=O)CN(C)C)nc2[nH]ccc12 | 84.8 | –
39 | COC1=CC=CC=C1C2=CC=CC(=C2)C/3=C(O)/C4=CC(=C(Cl)C=C4NC3=O)C#N | – | viability (top concentration 92.2 µM): 142
40 | NCCCCCC(=O)O | 130 | –
41 | CC1(C)CCC(C)(C)c2cc(NC(=O)c3ccc(C(=O)O)cc3)ccc21 | 54.2 | –
42 | CCOc1cc(CC(=O)N[C@@H](CC(C)C)c2ccccc2N2CCCCC2)ccc1C(=O)O | 143 | –
43 | COc1cc(C)c(Sc2cnc(NC(=O)c3ccc(CNC(C)C(C)C)cc3)s2)cc1C(=O)N1CCN(C(C)=O)CC1 (configuration not stated) | 85.7 | –
44 | Cc1c(CCOc2ccc(C(=O)O)cc2)c2cc(Cl)ccc2n1C(c1ccccc1)c1ccccc1 | 113 | –
45 | O=C(O)CCCCC(CCSCc1ccccc1)SCc1ccccc1 (configuration not stated) | 130 | –
46 | OC1=CC2=C(C(=O)\C=C(/O2)C3=CC=CC=C3)C(=C1O)O | 114 | –
47 | O=C(Cc1ccc(-c2ccc(OCCN3CCOCC3)cc2)cn1)NCc1ccccc1 | 104 | –
48 | CN(C)CCc1c[nH]c2ccc(Cn3cncn3)cc12 | 100 | –
49 | COc1cc2nc(N(C)CCCNC(=O)C3CCCO3)nc(N)c2cc1OC (configuration not stated) | 116 | –
50 | COc1ccc2c(c1)CC[C@@H](CN(C)CC(=O)O)[C@H]2c1ccccc1 | 78.3 | –
51 | CC[C@H]1OC(=O)[C@H](C)[C@@H](O[C@H]2C[C@@](C)(OC)[C@@H](O)[C@H](C)O2)[C@H](C)[C@@H](O[C@@H]2O[C@H](C)C[C@H](N(C)C)[C@H]2O)[C@](C)(O)C[C@@H](C)/C(=N\OCOCCOC)[C@H](C)[C@@H](O)[C@]1(C)O | 83.3 | –
52 | CC[C@H](/C=C/[C@@H](C)[C@H]1CC[C@H]2[C@@H]3CC=C4C[C@@H](O)CC[C@]4(C)[C@H]3CC[C@]12C)C(C)C | – | viability (top concentration 23 µM): 104

Row | Structure (SMILES) | viability (top concentration 46.1 µM) | also measured
53 | N#Cc1ccc(NC(=O)Nc2ccccc2Br)c2nn[nH]c12 | 129 | –
54 | OC1=C(Cl)C=C(N\C2=C(\C(=O)NC2=O)C3=C(C=CC=C3)[N+]([O-])=O)C=C1 | 103 | –
55 | CSC1=CC(=CC=C1)NC2=NC3=C(C=N2)/C=C(C(=O)N3C)/C4=C(Cl)C=CC=C4Cl | 107 | –
56 | Fc1ccc(CNc2ncnc3ccc(F)cc23)cc1 | 80.4 | –
57 | CN(C)CCOc1ccc(-c2nc(-c3ccncc3)c(-c3ccc4c(c3)CC/C4=N\O)[nH]2)cc1 | 94.9 | –
58 | CN1[C@@H]2CCC[C@H]1C[C@@H](NC(=O)c1nn(C)c3ccccc13)C2.Cl | 105 | –
59 | COCCOC(=O)C/1=C(C)/NC/2=C(C1C3=CC=CC(=C3)O)/C(=O)CC(C2)C4=C(OC)C=CC=C4 (configuration not stated) | 79.8 | –
60 | Cn1c(=O)c2c(ncn2CC(O)CO)n(C)c1=O (configuration not stated) | 138 | –
61 | CCN1\C=C(C(O)=O)/C(=O)C2=C1C=C(N3CCN(C)CC3)C(=C2)F | 115 | –
62 | COc1ccc(N(C(=O)Oc2c(C)cccc2C)c2ccnc(Nc3ccc(N4CCN(C)CC4)cc3)n2)c(OC)c1 | 83.2 | –
63 | C[C@]12CC[C@H]3[C@@H](CCC4=CC(=O)CC[C@@H]43)[C@@H]1CC[C@@H]2OC(=O)CCc1ccccc1 | 118 | –
64 | CN(C[C@@H]1COCCO1)[S+]([O-])(=O)NC2=CC3=C(C=C2)\C=C/C4=C(C=C(C=N4)C5=C[N](C)N=C5)C3=O | 114 | –
65 | CCn1cc(-c2ccnc3[nH]c(-c4cccc(CN(C)C)c4)cc23)c(-c2ccc(NC(=O)N(C)C)cc2)n1 | 54.6 | –
66 | COC(=O)C/1=C/O[C@@H](O)[C@H]\2[C@@H]1C\C=C2CO | 94.5 | –
67 | Cc1ncc([N+](=O)[O-])n1CCO | 106 | –
68 | CN(C)CCc1ccc(O)cc1 | 118 | –
69 | O=C(/C=C/c1cccnc1)NCCCCC1CCN(C(=O)c2ccccc2)CC1 | 128 | –
70 | C[C@](Cc1c[nH]c2ccccc12)(NC(=O)OC1C2CC3CC(C2)CC1C3)C(=O)NC[C@H](NC(=O)CCC(=O)O)c1ccccc1 (some centres not stated) | 103 | –
71 | COc1ccc(Nc2nccc(NCCO)n2)cc1 | 99.9 | –
72 | CC[C@H](CC#N)OC(=O)N[C@@H](C)c1cccc(NC(=O)Nc2ccc(-c3cnco3)c(OC)c2)c1 | 124 | –
73 | CCC[C@H]1C[C@H](C(=O)N[C@@H]([C@@H]2O[C@@H](SC)[C@@H](O)[C@@H](O)[C@H]2O)[C@H](C)Cl)N(C)C1 | 118 | –
74 | O=C(Nc1ncc(SCCN2CCCC2)s1)[C@]1(c2ccc([S+](=O)([O-])C3CC3)cc2)C[C@H]1C1CCCCC1 | 108 | –
75 | CCC(=O)OC1CCC2C3CCC/4=C/C(=O)CC[C@@]4(C)C3CC[C@]12C (some centres not stated) | 130 | –
76 | CCN(CCO)CCCC(C)Nc1ccnc2cc(Cl)ccc12 (configuration not stated) | 116 | –
77 | CCc1cccc(CC)c1NC(=O)N1Cc2[nH]nc(NC(=O)c3ccc(N4CCN(C)CC4)cc3)c2C1 | 87.2 | –

Source: the supplement of paper PMC6723410
